In patent US11952586B2, “B-cell cultivation method” (Hoffmann-La Roche Inc., priority 2017, dated 2024):

What was measured:
[1] = tested on: single deposited B-cells; assay: co-cultivation of single deposited B-cells with EL-4 B5 cells; antigen binding immunoassay (HSA); assay type: cell-based, rabbit
Protocol: Single cell sorted B-cells were cultured in 96-well plates with 200 μl/well EL-4 B5 medium with Pansorbin Cells (SAC) (Calbiochem (Merck), Darmstadt, Deutschland), EL-4 B5 cells (0-5×10^4/well) and rabbit thymocyte supernatant or cytokine mix, respectively, for 7 days at 37° C. in an atmosphere of 5% CO2 in the incubator. B-cell culture supernatants were removed for screening and the cells harvested immediately for variable region gene cloning or frozen at −80° C. in 100 μl RLT buffer (Qiagen, Hilden, Germany).
The assay was performed at room temperature (RT) on 384-well MaxiSorp microtiter plates (Thermo Scientific) with PBS (phosphate buffered saline) buffer supplemented with 0.5% Gelatin and 0.025% Tween®-20. The plates were coated with 0.5 μg/ml of human serum albumin (HSA, Sigma-Aldrich) for at least 2 hours to overnight. After washing (3×) with PBST (PBS with 0.1% Tween®-20) buffer the wells were blocked with PBS with 0.5% Gelatin and 0.1% Tween®-20. Again, the plates were washed three-times and afterwards dilutions of B-cell supernatants were added. After an incubation of 60 min and 3 washing steps with PBST a 1:4,000 dilution of a HRP-conjugated anti-rabbit IgG antibody (Amersham) was transferred to the wells and incubated for 60 min. Finally, the plates were repeatedly washed (6×) with PBST and developed with BM Blue® HRP substrate solution for 30 min. Absorbance was measured at 392-405 nm.

[2] = tested on: EL-4 B5 cells; assay: vitality of irradiated EL-4 B5 cells in presence of PMA; assay type: cell-based, murine
Text: Different PMA concentrations in combination with single deposited cells of a non-immunized animal have been tested.

[3] = PMA 0.048 ng/ml, 3 Gy, 15k/Well
[4] = PMA 0.048 ng/ml, 4 Gy, 20k/Well
[5] = PMA 0.048 ng/ml, 5 Gy, 20k/Well
[6] = PMA 0.048 ng/ml, 8 Gy, 20k/Well
[7] = PMA 0.048 ng/ml, 50 Gy, 50k/Well
[8] = PMA 0.109 ng/ml, 3 Gy, 15k/Well
[9] = PMA 0.109 ng/ml, 4 Gy, 20k/Well
[10] = PMA 0.109 ng/ml, 5 Gy, 20k/Well
[11] = PMA 0.109 ng/ml, 8 Gy, 20k/Well
[12] = PMA 0.109 ng/ml, 50 Gy, 50k/Well
[13] = PMA 0.25 ng/ml, 50 Gy, 50k/Well
[14] = PMA 0.57 ng/ml, 50 Gy, 50k/Well
[15] = PMA 1.3 ng/ml, 3 Gy, 15k/Well, HSA immunized rabbit

In the case of `CCCCCCCCCCCCCC(=O)O[C@@H]1[C@@H](C)[C@@]2(O)[C@@H](C=C(CO)C[C@]3(O)C(=O)C(C)=C[C@@H]23)[C@@H]2C(C)(C)[C@]12OC(C)=O` [PMA, phorbol-12-myristate-13-acetate], the “HSA (absolute corrected) Freq./plate OD>c” value [1, 3] is reported as 25 % total, the “HSA (absolute corrected) Freq./plate OD>c and rbIgG+” value [1, 3] is reported as 48.8 % IgG and the “HSA (absolute corrected) Freq./plate OD>c” value [1, 4] is reported as 36.9 % total. The “HSA (absolute corrected) Freq./plate OD>c and rbIgG+” value [1, 4] was 50 % IgG, the “HSA (absolute corrected) Freq./plate OD>c” value [1, 5] was 27.4 % total and the “HSA (absolute corrected) Freq./plate OD>c and rbIgG+” value [1, 5] was 38.3 % IgG. For the same molecule, the “HSA (absolute corrected) Freq./plate OD>c” value [1, 6] was 42.9 % total, the “HSA (absolute corrected) Freq./plate OD>c and rbIgG+” value [1, 6] was 49.3 % IgG and the “HSA (absolute corrected) Freq./plate OD>c” value [1, 7] was 14.3 % total. The “HSA (absolute corrected) Freq./plate OD>c and rbIgG+” value [1, 7] was 58.3 % IgG, the “HSA (absolute corrected) Freq./plate OD>c” value [1, 8] was 9.5 % total and the “HSA (absolute corrected) Freq./plate OD>c and rbIgG+” value [1, 8] was 17.5 % IgG. For the same molecule, the “HSA (absolute corrected) Freq./plate OD>c” value [1, 9] was 32.1 % total, the “HSA (absolute corrected) Freq./plate OD>c and rbIgG+” value [1, 9] was 42.2 % IgG and the “HSA (absolute corrected) Freq./plate OD>c” value [1, 10] was 42.9 % total. The “HSA (absolute corrected) Freq./plate OD>c and rbIgG+” value [1, 10] was 47.1 % IgG, the “HSA (absolute corrected) Freq./plate OD>c” value [1, 11] was 32.1 % total and the “HSA (absolute corrected) Freq./plate OD>c and rbIgG+” value [1, 11] was 41.5 % IgG. The “HSA (absolute corrected) Freq./plate OD>c” value [1, 12] was 9.5 % total, the “HSA (absolute corrected) Freq./plate OD>c and rbIgG+” value [1, 12] was 50 % IgG and the “HSA (absolute corrected) Freq./plate OD>c” value ([1]; PMA 0.25 ng/ml, 3 Gy, 15k/Well) was 21.4 % total. For the same molecule, the “HSA (absolute corrected) Freq./plate OD>c and rbIgG+” value ([1]; PMA 0.25 ng/ml, 3 Gy, 15k/Well) was 45 % IgG, the “HSA (absolute corrected) Freq./plate OD>c” value ([1]; PMA 0.25 ng/ml, 4 Gy, 20k/Well) was 33.3 % total and the “HSA (absolute corrected) Freq./plate OD>c and rbIgG+” value ([1]; PMA 0.25 ng/ml, 4 Gy, 20k/Well) was 44.4 % IgG. For the same molecule, the “HSA (absolute corrected) Freq./plate OD>c” value ([1]; PMA 0.25 ng/ml, 5 Gy, 20k/Well) was 32.1 % total, the “HSA (absolute corrected) Freq./plate OD>c and rbIgG+” value ([1]; PMA 0.25 ng/ml, 5 Gy, 20k/Well) was 38 % IgG and the “HSA (absolute corrected) Freq./plate OD>c” value ([1]; PMA 0.25 ng/ml, 8 Gy, 20k/Well) was 32.1 % total. The “HSA (absolute corrected) Freq./plate OD>c and rbIgG+” value ([1]; PMA 0.25 ng/ml, 8 Gy, 20k/Well) was 36.5 % IgG, the “HSA (absolute corrected) Freq./plate OD>c” value [1, 13] was 13.1 % total and the “HSA (absolute corrected) Freq./plate OD>c and rbIgG+” value [1, 13] was 47.1 % IgG. For the same molecule, the “HSA (absolute corrected) Freq./plate OD>c” value ([1]; PMA 0.57 ng/ml, 3 Gy, 15k/Well) was 11.9 % total, the “HSA (absolute corrected) Freq./plate OD>c and rbIgG+” value ([1]; PMA 0.57 ng/ml, 3 Gy, 15k/Well) was 33.3 % IgG and the “HSA (absolute corrected) Freq./plate OD>c” value ([1]; PMA 0.57 ng/ml, 4 Gy, 20k/Well) was 26.2 % total. For the same molecule, the “HSA (absolute corrected) Freq./plate OD>c and rbIgG+” value ([1]; PMA 0.57 ng/ml, 4 Gy, 20k/Well) was 36.1 % IgG, the “HSA (absolute corrected) Freq./plate OD>c” value ([1]; PMA 0.57 ng/ml, 5 Gy, 20k/Well) was 38.1 % total and the “HSA (absolute corrected) Freq./plate OD>c and rbIgG+” value ([1]; PMA 0.57 ng/ml, 5 Gy, 20k/Well) was 43.8 % IgG. For the same molecule, the “HSA (absolute corrected) Freq./plate OD>c” value ([1]; PMA 0.57 ng/ml, 8 Gy, 20k/Well) was 35.7 % total, the “HSA (absolute corrected) Freq./plate OD>c and rbIgG+” value ([1]; PMA 0.57 ng/ml, 8 Gy, 20k/Well) was 44.1 % IgG and the “HSA (absolute corrected) Freq./plate OD>c” value [1, 14] was 40.5 % total. The “HSA (absolute corrected) Freq./plate OD>c and rbIgG+” value [1, 14] was 46.5 % IgG, the “HSA (absolute corrected) Freq./plate OD>c” value [1, 15] was 3.6 % total and the “HSA (absolute corrected) Freq./plate OD>c and rbIgG+” value [1, 15] was 42.9 % IgG. For the same molecule, the “HSA (absolute corrected) Freq./plate OD>c” value ([1]; PMA 1.3 ng/ml, 4 Gy, 20k/Well) was 31 % total, the “HSA (absolute corrected) Freq./plate OD>c and rbIgG+” value ([1]; PMA 1.3 ng/ml, 4 Gy, 20k/Well) was 42.6 % IgG and the “HSA (absolute corrected) Freq./plate OD>c” value ([1]; PMA 1.3 ng/ml, 5 Gy, 20k/Well) was 34.5 % total. For the same molecule, the “HSA (absolute corrected) Freq./plate OD>c and rbIgG+” value ([1]; PMA 1.3 ng/ml, 5 Gy, 20k/Well) was 40.8 % IgG, the “HSA (absolute corrected) Freq./plate OD>c” value ([1]; PMA 1.3 ng/ml, 8 Gy, 20k/Well) was 36.9 % total and the “HSA (absolute corrected) Freq./plate OD>c and rbIgG+” value ([1]; PMA 1.3 ng/ml, 8 Gy, 20k/Well) was 40.5 % IgG. For the same molecule, the “HSA (absolute corrected) Freq./plate OD>c” value ([1]; PMA 1.3 ng/ml, 50 Gy, 50k/Well) was 40.5 % total, the “HSA (absolute corrected) Freq./plate OD>c and rbIgG+” value ([1]; PMA 1.3 ng/ml, 50 Gy, 50k/Well) was 47.1 % IgG and the Vitality ([2]; c(PMA) 0.03 ng/ml, 4 Gy) was 54.8%. The Vitality ([2]; c(PMA) 0.03 ng/ml, 50 Gy) was 3.9%, the Vitality ([2]; c(PMA) 0.06 ng/ml, 4 Gy) was 45.4% and the Vitality ([2]; c(PMA) 0.125 ng/ml, 4 Gy) was 39.8%. The Vitality ([2]; c(PMA) 0.25 ng/ml, 4 Gy) was 34%, the Vitality ([2]; c(PMA) 0.25 ng/ml, 50 Gy) was 9.5% and the Vitality ([2]; c(PMA) 0.5 ng/ml, 4 Gy) was 32.2%. For the same molecule, the Vitality ([2]; c(PMA) 1.3 ng/ml, 4 Gy) was 19.2% and the Vitality ([2]; c(PMA) 1.3 ng/ml, 50 Gy) was 17.4%.
